Laboratory results reported in patent US20260184687A1, “DIHYDROINDENE DERIVATIVES AS MALT1 INHIBITORS” (C4X Discovery Limited, priority 2022, published 2026).

target: T1, FL hMALT1 enzyme (Homo sapiens, UniProt Q9UDY8); assay: biochemical
T1 sequence (Q9UDY8 1-824): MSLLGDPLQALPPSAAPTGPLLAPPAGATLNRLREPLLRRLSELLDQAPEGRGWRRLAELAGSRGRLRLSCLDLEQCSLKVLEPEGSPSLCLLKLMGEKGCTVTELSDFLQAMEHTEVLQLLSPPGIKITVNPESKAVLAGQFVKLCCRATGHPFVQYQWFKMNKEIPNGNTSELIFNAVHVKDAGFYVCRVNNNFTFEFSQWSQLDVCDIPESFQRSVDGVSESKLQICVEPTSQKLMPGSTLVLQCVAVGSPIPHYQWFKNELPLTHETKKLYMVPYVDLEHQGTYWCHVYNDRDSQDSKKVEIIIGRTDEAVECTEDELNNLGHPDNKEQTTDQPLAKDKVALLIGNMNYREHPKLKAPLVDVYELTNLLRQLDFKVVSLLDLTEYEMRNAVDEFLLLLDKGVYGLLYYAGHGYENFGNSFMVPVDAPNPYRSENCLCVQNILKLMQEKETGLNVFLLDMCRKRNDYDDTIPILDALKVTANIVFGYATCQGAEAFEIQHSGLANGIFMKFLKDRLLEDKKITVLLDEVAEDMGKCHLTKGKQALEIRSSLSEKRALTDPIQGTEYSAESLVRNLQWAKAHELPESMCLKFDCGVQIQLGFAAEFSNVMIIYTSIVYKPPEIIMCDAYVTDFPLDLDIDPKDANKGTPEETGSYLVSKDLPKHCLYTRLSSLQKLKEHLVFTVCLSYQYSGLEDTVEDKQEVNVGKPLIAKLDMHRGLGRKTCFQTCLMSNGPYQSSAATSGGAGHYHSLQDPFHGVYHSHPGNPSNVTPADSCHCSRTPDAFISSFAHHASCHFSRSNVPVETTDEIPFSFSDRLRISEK
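Further: Cell-free protease assay: enzyme preincubated with compound 30 min at room temperature, then cleavage of fluorogenic Ac-LVSR-AMC substrate (100 µM) tracked by fluorescence (ex 360/em 460 nm).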

SMILES	IC50 [nM]
CN(C(=O)C1CN2CCC1CC2)[C@@H](c1ccc(NC2Cc3ccccc3C2(C)C)nc1)C(F)(F)F (single isomer, unassigned) [Example 120]	770
CN(C(=O)C1CN2CCC1CC2)[C@@H](c1ccc(NC2Cc3ccccc3C2(C)C)nc1)C(F)(F)F (single isomer, unassigned) [Example 121]	510
CN(C(=O)C1CN2CCC1CC2)[C@@H](c1ccc(NC2Cc3ccccc3C2(C)C)nc1)C(F)(F)F (single isomer, unassigned) [Example 122]	1140
CN(C(=O)C1CN2CCC1CC2)[C@@H](c1ccc(NC2Cc3ccccc3C2(C)C)nc1)C(F)(F)F (single isomer, unassigned) [Example 123]	870
CN(C(=O)C1CCCNC1)[C@@H](c1ccc(NC2Cc3ccccc3C2(C)C)cn1)C(F)(F)F (single isomer, unassigned) [Example 127]	300
CN1CCCC(C(=O)N(C)[C@@H](c2ccc(NC3Cc4ccccc4C3(C)C)cn2)C(F)(F)F)C1 (single isomer, unassigned) [Example 128]	400
CN(C(=O)C1CNC(=O)CO1)[C@@H](c1ccc(NC2Cc3ccccc3C2(C)C)cn1)C(F)(F)F (single isomer, unassigned) [Example 135]	450
CN(C(=O)C1CN2CCC1CC2)[C@@H](c1ccc(NC2Cc3ccccc3C2(C)C)cn1)C(F)(F)F (single isomer, unassigned) [Example 138]	780
CN(C(=O)C1CN2CCC1CC2)[C@@H](c1ccc(NC2Cc3ccccc3C2(C)C)cn1)C(F)(F)F (single isomer, unassigned) [Example 139]	370
CN(C(=O)N1CCS(=O)(=O)CC1)[C@@H](c1ccc(NC2Cc3ccccc3C2(C)C)cn1)C(F)(F)F (single isomer, unassigned) [Example 143]	680
CN(C(=O)C1CCNCC1)[C@@H](c1ccc(NC2Cc3ccccc3C2(C)C)nc1)C(F)(F)F (single isomer, unassigned) [Example 148]	290
CN(C(=O)[C@H]1C[C@]2(CCN2C)C1)[C@@H](c1ccc(NC2Cc3ccccc3C2(C)C)cn1)C(F)(F)F (single isomer, unassigned) [Example 158]	440
CN(C(=O)C1COCC(=O)N1)[C@@H](c1ccc(NC2Cc3ccccc3C2(C)C)cn1)C(F)(F)F (single isomer, unassigned) [Example 161]	310
COc1cccc2c1CC(Nc1ccc([C@H](N(C)C(=O)C3CCS(=O)(=O)CC3)C(F)(F)F)nc1)C2 (single isomer, unassigned) [Example 177]	6600
COc1cccc2c1CC(Nc1ccc([C@H](N(C)C(=O)C3CCS(=O)(=O)CC3)C(F)(F)F)nc1)C2 (single isomer, unassigned) [Example 178]	260
CN(C(=O)C1CCS(=O)(=O)CC1)[C@@H](c1ccc(NC2Cc3cccc(C(F)(F)F)c3C2)cn1)C(F)(F)F (single isomer, unassigned) [Example 190]	3300
CCc1cccc2c1CC(Nc1ccc([C@H](N(C)C(=O)C3CCS(=O)(=O)CC3)C(F)(F)F)nc1)C2 (single isomer, unassigned) [Example 197]	2600
CN(C(=O)C1CCS(=O)(=O)CC1)[C@@H](c1ccc(N[C@@H]2Cc3ccc(Cl)cc3C2)cn1)C(F)(F)F (single isomer, unassigned) [Example 200]	1100
CN(C(=O)CN1CC(=O)NC1=O)[C@@H](c1ccc(NC2Cc3ccccc3C2(C)C)cn1)C(F)(F)F (single isomer, unassigned) [Example 213]	500
CN(C(=O)C1C2CS(=O)(=O)CC21)[C@@H](c1ccc(NC2Cc3ccccc3C2(C)C)cn1)C(F)(F)F (single isomer, unassigned) [Example 214]	320
CNC(=O)N1CCC12CC(C(=O)N(C)[C@@H](c1ccc(NC3Cc4ccccc4C3(C)C)cn1)C(F)(F)F)C2 (single isomer, unassigned) [Example 238]	470
CN(C(=O)CN1CCNC1=O)[C@@H](c1ccc(NC2Cc3ccccc3C2(C)C)cn1)C(F)(F)F (single isomer, unassigned) [Example 246]	330
CN(C(=O)C1CCS(=O)(=O)CC1)[C@@H](c1ccc(NC2Cc3ccc(C(F)(F)F)cc3C2)cn1)C(F)(F)F (single isomer, unassigned) [Example 256]	1100
CN(C(=O)C1CCS(=O)(=O)CC1)[C@@H](c1ccc(NC2Cc3cccc(C#N)c3C2)cn1)C(F)(F)F (single isomer, unassigned) [Example 257]	2000
CN(C(=O)C1CCS(=O)(=O)CC1)[C@@H](c1ccc(NC2Cc3ccc(F)cc3C2)cn1)C(F)(F)F (single isomer, unassigned) [Example 258]	4500

Continued by falling IC50, values first:

IC50 [nM]	SMILES
260	CN1CCCC(C(=O)N(C)[C@@H](c2ccc(NC3Cc4ccccc4C3(C)C)cn2)C(F)(F)F)C1 (single isomer, unassigned) [Example 131]
260	CN(C(=O)C1CCNCC1)[C@@H](c1ccc(NC2Cc3ccccc3C2(C)C)cn1)C(F)(F)F (single isomer, unassigned) [Example 147]
240	CN(C(=O)C1CCNCC1)[C@@H](c1ccc(NC2Cc3ccccc3C2(C)C)nc1)C(F)(F)F (single isomer, unassigned) [Example 149]
230	CN1CCC(C(=O)N(C)[C@@H](c2ccc(NC3Cc4ccccc4C3(C)C)nc2)C(F)(F)F)CC1 (single isomer, unassigned) [Example 145]
210	CC(=O)N1CCC12CC(C(=O)N(C)[C@@H](c1ccc(NC3Cc4ccccc4C3(C)C)cn1)C(F)(F)F)C2 (single isomer, unassigned) [Example 236]
200	CN(C(=O)C1CN(S(C)(=O)=O)C1)[C@@H](c1ccc(NC2Cc3ccccc3C2(C)C)cn1)C(F)(F)F (single isomer, unassigned) [Example 210]
200	COCCN1CCC12CC(C(=O)N(C)[C@@H](c1ccc(NC3Cc4ccccc4C3(C)C)cn1)C(F)(F)F)C2 (single isomer, unassigned) [Example 242]
190	CN(C(=O)C1COCC(=O)N1)[C@@H](c1ccc(NC2Cc3ccccc3C2(C)C)cn1)C(F)(F)F (single isomer, unassigned) [Example 163]
180	CN(C(=O)C1CC2(CCN2)C1)[C@@H](c1ccc(NC2Cc3ccccc3C2(C)C)cn1)C(F)(F)F (single isomer, unassigned) [Example 155]
170	CN(C(=O)C1C2CS(=O)(=O)CC21)[C@@H](c1ccc(NC2Cc3ccccc3C2(C)C)cn1)C(F)(F)F (single isomer, unassigned) [Example 217]
160	CN1CC(=O)NCC1C(=O)N(C)[C@@H](c1ccc(N[C@H]2Cc3ccccc3C2(C)C)cn1)C(F)(F)F (single isomer, unassigned) [Example 202]
150	CN(C(=O)C1CC2(CCN2)C1)[C@@H](c1ccc(NC2Cc3ccccc3C2(C)C)cn1)C(F)(F)F (single isomer, unassigned) [Example 154]
150	CNC(=O)N1CCC12CC(C(=O)N(C)[C@@H](c1ccc(NC3Cc4ccccc4C3(C)C)cn1)C(F)(F)F)C2 (single isomer, unassigned) [Example 239]
140	CN(C(=O)C1CC2(CCC(=O)N2)C1)[C@@H](c1ccc(NC2Cc3ccccc3C2(C)C)cn1)C(F)(F)F (single isomer, unassigned) [Example 229]
140	CN(C(=O)C1CC2(CCN2CCO)C1)[C@@H](c1ccc(NC2Cc3ccccc3C2(C)C)cn1)C(F)(F)F (single isomer, unassigned) [Example 248]
130	CN(C(=O)CN1CC(=O)NC1=O)[C@@H](c1ccc(NC2Cc3ccccc3C2(C)C)cn1)C(F)(F)F (single isomer, unassigned) [Example 212]
130	CN(C(=O)CN1CCNC1=O)[C@@H](c1ccc(NC2Cc3ccccc3C2(C)C)cn1)C(F)(F)F (single isomer, unassigned) [Example 245]
120	CN(C(=O)[C@H]1C[C@@]2(COC(=O)N2)C1)[C@@H](c1ccc(NC2Cc3ccccc3C2(C)C)cn1)C(F)(F)F (single isomer, unassigned) [Example 207]
110	CN(C(=O)C1COCC(=O)N1)[C@@H](c1ccc(NC2Cc3ccccc3C2(C)C)cn1)C(F)(F)F (single isomer, unassigned) [Example 162]
110	CN1CC(=O)NCC1C(=O)N(C)[C@@H](c1ccc(N[C@H]2Cc3ccccc3C2(C)C)cn1)C(F)(F)F (single isomer, unassigned) [Example 201]
110	CN(C(=O)C1CC2(CCC(=O)N2)C1)[C@@H](c1ccc(NC2Cc3ccccc3C2(C)C)cn1)C(F)(F)F (single isomer, unassigned) [Example 231]
110	CN(C(=O)C1CCS(=O)(=O)CC1)[C@@H](c1ccc(NC2Cc3ccc(C(F)(F)F)cc3C2)cn1)C(F)(F)F (single isomer, unassigned) [Example 255]
